Data from patent EP1620056B1, “TUMOR CYTOTOXICITY INDUCED BY MODULATORS OF THE CXCR4 RECEPTOR” (Morehouse School of Medicine, priority 2003, dated 2004).

What was measured:
[1] = tested on: epithelial tumor cell lines; experiment: Apoptotic assay of Gp 120 and Nef peptides; type: cell-based, human; details: peptide sequences within Nef or Gp 120
Source text: The nef protein was expressed and purified in the inventors' laboratory. overlapping 20 mer peptides encompassing the entire nef protein and overlapping 15 mer peptides encompassing the entire Gp 120 protein were obtained from the NIH AIDS Research & Reference Reagent Program (McKesson HBC Bio-Services, MD) Other specific peptides designed from within Gp 120 or nef were obtained from SigmaGenosys.
Apoptosis generates DNA free ends which can be labeled in situ using terminal deoxynucleotidyl-transferase (TdT), incorporating an exogenously added labeled nucleotide to the DNA strand. This label can then be visualized directly by fluorescence or indirectly using anti-FITC-peroxidase, and a colorimetric assay. Cells on coverslips were washed with PBS, and fixed for 30 minutes at RT with 4% paraformaldehyde, in PBS, pH 7.4. They were then washed with PBS, and permeabilized with 0.1% Triton X-100 for 10 minutes at room temperature (RT). The slides were rinsed twice with PBS, and air dried for 2 minutes. The manufacturer's procedure for TUNEL staining the slides was followed (manufacturer's procedure for the In Situ Cell Death Detection Kit, AP; Boehringer Mannheim, Indianapolis, IN). Total cell counts were determined by counterstaining fixed cultures with 20 µg/ml of Hoechst 33258. […]

[2] = tested on: MDA-MB231, MCF7, and DU4475; experiment: Agarose gel electrophoresis / DNA fragmentation (DNA laddering) in CXCR4-expressing lines; type: cell-based, human; details: positive control, 10 mM (6.35 mg/ml), 24 hours, compared to untreated cultures
Method: Untreated or treated cells were collected, and DNA was harvested from normal or cancer cell cultures. Briefly, the cells were washed with PBS, pelleted at 1600 g for 20 minutes at 4°C, and resuspended in 50 mM Tris-HCl, pH 7.5, 20 mM EDTA buffer at about 10^7 cells/ml. The cells were then treated 2x with lysis buffer: 1.0% NP-40 (Sigma, St. Louis, MO) in the same Tris/EDTA buffer at RT for 2 minutes followed by centrifugation at 1600 g for 5 minutes. After the last spin, SDS was added to the supernatant to 1% final concentration, RNase A (Sigma, St. Louis, MO) was added to 5 mg/ml final concentration, and the solution incubated at 56°C for 2 hours. Subsequently, protease K (Promega, Madison, WI) was added to the solution to 2.5 µg/ml and incubated at 37°C for 2.5 hr. Ammonium acetate was added to 4 M final concentration, 0.7 volumes of isopropanol was added, the solution was put at -20°C overnight followed by centrifugation at 14,000 rpm for 30 minutes. The pellets were washed twice with 70% ethanol, dried and resuspended in 10 mM Tris-HCl, pH 7.5, 1 mM EDTA. DNA samples, 18 µg per condition, were prepared in neutral loading buffer to a final concentration of 0.02% bromophenol blue, 5% glycerol, 0.1% SDS, and 50 µg of ethidium bromide, loaded onto a neutral agarose gel (1.7%), and run at 50V for 2.5 hours. […]

| Substance | apoptotic properties of the sequence [1] | DNA laddering [2] |
| --- | --- | --- |
| ALAETCONAWA | lost all apoptotic effects | – |
| ceramide | – | DNA laddering characteristic of apoptotic cells was observed |
